According to US20020051978A1, “Methods and compositions for the identification, assessment, prevention and therapy of human cancers” (priority 2000, published 2002):
Where “and” joins values, the source holds several entries; their conditions need not be identical. Equal entries are not always repeated. Where two headings read alike, the source gives them in different places.

Tests used:
[1] = tested on: 60 cancer cell lines (NCI 60 cancer cell line series); settings: cited from earlier work
[2] = tested on: 60 cancer cell lines (NCI 60 cancer cell line series); test: NCI-DTP in vitro cancer screen, sulforhodamine B (SRB) growth inhibition, 48 hour exposure; type: cell-based, human
In short: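 Values come from the NCI-DTP screen database: -log GI50, the concentration giving 50% growth inhibition, derived from SRB cell-mass dose-response curves. Each line seeded at its own density, treated day 1 at five ten-fold-spaced doses in duplicate wells, stained after 48 h.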

## COc1cccc2c1C(=O)c1c(O)c3c(c(O)c1C2=O)C[C@@](O)(C(C)=O)C[C@@H]3O[C@H]1C[C@H](N)[C@H](O)[C@H](C)O1 [Daunorubicin]
[1]; Breast BT-549 (CL5013)
  -Log (GI50): 6.8 and 6.7
[1]; Breast MCF7(I) (CL5001)
  -Log (GI50): 8.1 and 8.0
[1]; Breast MCF7/ADRr (CL5002)
  -Log (GI50): 5.3
[1]; Breast MDA-MB-231 CL5005
  -Log (GI50): 6.7 and 6.9
[1]; Breast MDA-MB-435 (CL5011)
  -Log (GI50): 6.7 and 6.9
[1]; Breast MDA-N CL5012
  -Log (GI50): 6.8 and 7.1
[1]; Breast T-47D (CL5014)
  -Log (GI50): 7.2 and 7.3
[1]; CNS SNB-19 (CL12002)
  -Log (GI50): 7.4 and 7.7
[1]; CNS U251(I) CL12009
  -Log (GI50): 7.5 and 7.8
[1]; Colon COLO-250 CL4010
  -Log (GI50): 6.8
[1]; Colon HCC-2998 (CL4002)
  -Log (GI50): 6.8 and 6.7
[1]; Colon HCT-15 CL4015
  -Log (GI50): 6.2 and 5.9
[1]; Colon HCT-116 (CL4003)
  -Log (GI50): 7.6 and 7.8
[1]; Colon SW-620 (CL4009)
  -Log (GI50): 7.6 and 7.7
[1]; Leukemia CCRF-CEM(I) (CL7003)
  -Log (GI50): 7.9 and 8.0
[1]; Leukemia HL-60(I) (CL7008)
  -Log (GI50): 7.9 and 8.0
[1]; Leukemia MOLT-4 (CL7006)
  -Log (GI50): 8.2 and 8.0
[1]; Leukemia SR CL7019
  -Log (GI50): 8.1 and 8.0
[1]; Melanoma M14 (CL10014)
  -Log (GI50): 6.8 and 7.1
[1]; Melanoma MALME-3M CL10002
  -Log (GI50): 7.3 and 7.6
[1]; Melanoma SK-MEL-5 (CL10007)
  -Log (GI50): 7.2 and 7.4
[1]; Melanoma SK-MEL-28 (CL10008)
  -Log (GI50): 6.5 and 6.7
[1]; Melanoma UACC-257 (CL10021)
  -Log (GI50): 6.7 and 6.9
[1]; NCSLC NCI-H522 CL1003
  -Log (GI50): 7.3 and 7.5
[1]; NSCLC A549/ATCC (CL1004)
  -Log (GI50): 7.3 and 7.6
[1]; NSCLC EKVX (CL1008)
  -Log (GI50): 6.2 and 5.9
[1]; NSCLC HOP-62 (CL1026)
  -Log (GI50): 7.6 and 7.8
[1]; NSCLC HOP-92 (CL1029)
  -Log (GI50): 7.2 and 7.5
[1]; NSCLC NCI-H226 CL1013
  -Log (GI50): 7.5
[1]; NSCLC NCI-H332M CL1017
  -Log (GI50): 6.5 and 6.8
[1]; NSCLC NCI-H460 CL1021
  -Log (GI50): 8.2 and 8.0
[1]; Ovarian OVCAR-3 CL6001
  -Log (GI50): 6.8 and 7.0
[1]; Ovarian OVCAR-4 CL6002
  -Log (GI50): 6.5 and 6.8
[1]; Renal A498 CL9013
  -Log (GI50): 6.8 and 6.9
[1]; Renal RXF-393 CL9016
  -Log (GI50): 6.8 and 7.0
[1]; Renal UO-31 CL9004
  -Log (GI50): 6.4
[2]; Breast BT-549 (CL5013)
  classification of cell line as Low(1), Medium(2) or High(3) sensitivity to compound: 1
[2]; Breast MCF7(I) (CL5001)
  classification of cell line as Low(1), Medium(2) or High(3) sensitivity to compound: 3
[2]; Breast MCF7/ADRr (CL5002)
  classification of cell line as Low(1), Medium(2) or High(3) sensitivity to compound: 1
[2]; Breast MDA-MB-231 CL5005
  classification of cell line as Low(1), Medium(2) or High(3) sensitivity to compound: 1
[2]; Breast MDA-MB-435 (CL5011)
  classification of cell line as Low(1), Medium(2) or High(3) sensitivity to compound: 1
[2]; Breast MDA-N CL5012
  classification of cell line as Low(1), Medium(2) or High(3) sensitivity to compound: 1
[2]; Breast T-47D (CL5014)
  classification of cell line as Low(1), Medium(2) or High(3) sensitivity to compound: 2
[2]; CNS SF-268 CL12014
  classification of cell line as Low(1), Medium(2) or High(3) sensitivity to compound: 2
[2]; CNS SF-295 CL12015
  classification of cell line as Low(1), Medium(2) or High(3) sensitivity to compound: 2
[2]; CNS SNB-19 (CL12002)
  classification of cell line as Low(1), Medium(2) or High(3) sensitivity to compound: 2
[2]; CNS SNB-75(I) CL12005
  classification of cell line as Low(1), Medium(2) or High(3) sensitivity to compound: 2
[2]; CNS U251(I) CL12009
  classification of cell line as Low(1), Medium(2) or High(3) sensitivity to compound: 2
[2]; Colon COLO-250 CL4010
  classification of cell line as Low(1), Medium(2) or High(3) sensitivity to compound: 1
[2]; Colon HCC-2998 (CL4002)
  classification of cell line as Low(1), Medium(2) or High(3) sensitivity to compound: 1
[2]; Colon HCT-15 CL4015
  classification of cell line as Low(1), Medium(2) or High(3) sensitivity to compound: 1
[2]; Colon HCT-116 (CL4003)
  classification of cell line as Low(1), Medium(2) or High(3) sensitivity to compound: 2
[2]; Colon HT29(I) CL4001
  classification of cell line as Low(1), Medium(2) or High(3) sensitivity to compound: 2
[2]; Colon SW-620 (CL4009)
  classification of cell line as Low(1), Medium(2) or High(3) sensitivity to compound: 2
[2]; Leukemia CCRF-CEM(I) (CL7003)
  classification of cell line as Low(1), Medium(2) or High(3) sensitivity to compound: 3
[2]; Leukemia HL-60(I) (CL7008)
  classification of cell line as Low(1), Medium(2) or High(3) sensitivity to compound: 3
[2]; Leukemia MOLT-4 (CL7006)
  classification of cell line as Low(1), Medium(2) or High(3) sensitivity to compound: 3
[2]; Leukemia SR CL7019
  classification of cell line as Low(1), Medium(2) or High(3) sensitivity to compound: 3
[2]; Melanoma M14 (CL10014)
  classification of cell line as Low(1), Medium(2) or High(3) sensitivity to compound: 1
[2]; Melanoma MALME-3M CL10002
  classification of cell line as Low(1), Medium(2) or High(3) sensitivity to compound: 2
[2]; Melanoma SK-MEL-5 (CL10007)
  classification of cell line as Low(1), Medium(2) or High(3) sensitivity to compound: 2
[2]; Melanoma SK-MEL-28 (CL10008)
  classification of cell line as Low(1), Medium(2) or High(3) sensitivity to compound: 1
[2]; Melanoma UACC-62 (CL10020)
  classification of cell line as Low(1), Medium(2) or High(3) sensitivity to compound: 2
[2]; Melanoma UACC-257 (CL10021)
  classification of cell line as Low(1), Medium(2) or High(3) sensitivity to compound: 1
[2]; NSCLC A549/ATCC (CL1004)
  classification of cell line as Low(1), Medium(2) or High(3) sensitivity to compound: 2
[2]; NSCLC EKVX (CL1008)
  classification of cell line as Low(1), Medium(2) or High(3) sensitivity to compound: 1
[2]; NSCLC HOP-62 (CL1026)
  classification of cell line as Low(1), Medium(2) or High(3) sensitivity to compound: 2
[2]; NSCLC HOP-92 (CL1029)
  classification of cell line as Low(1), Medium(2) or High(3) sensitivity to compound: 2
[2]; NSCLC NCI-H226 CL1013
  classification of cell line as Low(1), Medium(2) or High(3) sensitivity to compound: 2
[2]; cell line NSCLC NCI-H23(I), CL1001
  sensitivity class NSCLC NCI-H23(I) CL1001: 2
[2]; cell line NSCLC NCI-H332M, CL1017
  sensitivity class NSCLC NCI-H332M CL1017: 1
[2]; cell line NSCLC NCI-H460, CL1021
  sensitivity class NSCLC NCI-H460 CL1021: 3
[2]; cell line NSCLC NCI-H522, CL1003
  sensitivity class NSCLC NCI-H522 CL1003: 2
[2]; cell line Ovarian IGROV1, CL6010
  sensitivity class Ovarian IGROV1 CL6010: 2
[2]; cell line Ovarian OVCAR-3, CL6001
  sensitivity class Ovarian OVCAR-3 CL6001: 1
[2]; cell line Ovarian OVCAR-4, CL6002
  sensitivity class Ovarian OVCAR-4 CL6002: 1
[2]; cell line Ovarian OVCAR-5, CL6003
  sensitivity class Ovarian OVCAR-5 CL6003: 1
[2]; cell line Ovarian OVCAR-8, CL6005
  sensitivity class Ovarian OVCAR-8 CL6005: 2
[2]; cell line Prostate DU-145, CL11003
  sensitivity class Prostate DU-145 CL11003: 2
[2]; cell line Prostate PC-3(I), CL11001
  sensitivity class Prostate PC-3(I) CL11001: 2
[2]; cell line Renal 786-O, CL9018
  sensitivity class Renal 786-O CL9018: 2
[2]; cell line Renal A498, CL9013
  sensitivity class Renal A498 CL9013: 1
[2]; cell line Renal ACHN, CL9023
  sensitivity class Renal ACHN CL9023: 2
[2]; cell line Renal CAKI-1, CL9015
  sensitivity class Renal CAKI-1 CL9015: 2
[2]; cell line Renal RXF-393, CL9016
  sensitivity class Renal RXF-393 CL9016: 1
[2]; cell line Renal SN12C, CL9008
  sensitivity class Renal SN12C CL9008: 2
[2]; cell line Renal TK10, CL9024
  sensitivity class Renal TK10 CL9024: 1
[2]; cell line Renal UO-31, CL9004
  sensitivity class Renal UO-31 CL9004: 1
